Assay results published in patent US6359008B1, “Acylated aminoacids for increasing the uptake of selected substances by organisms” (Lovesgrove Research Limited, priority 1998, dated 2002).

Legend:
[1] = test system: Rainbow Trout; experiment: Field trial of Corbinol as pigment adsorption enhancer in fish feed; format: in vivo
Description: A field trial was conducted at a fish farm facility adjacent to the Rheidol hydroelectric station to establish a preliminary indication of the efficacy of Corbinol comprising 75 g palmitoylaminoproprionic acid with 925 g of silica talc carrier as a pigment adsorption enhancer. Approximately 250 Rainbow Trout were divided into two groups and held in separate tanks each 4 m×4 m×1 m. The fish were hand fed for a duration of 4 weeks, the diets for the two groups being: Control: Mainstream Trout Hi-Performance 40 Treated: Mainstream Trout Hi-Performance+Corbinol (1 kg/tonne) At the end of the trial 100 farm fish from each group were removed and individually weighed. Equal levels of flesh samples were bulked together forming 10 groups of 10 for both the control and treated diets. HPLC analysis was conducted using a Merck-Hitachi L-4250 UV-Vis detector following an isocratic method referred to in a Roche Ltd publication.

[2] = Heat stability of the compound; format: physicochemical
Text: The high polar head group appears to provide the bio-activity of the compound without having to incorporate a phosphonic group therein.

CCCCCCCCCCCCCCCC(=O)NC(C)C(=O)O (centres unmarked) [2-palmitoylaminoproprionic acid]
uptake of selected compounds, in particular pigments, in organisms such as fish [1]: increase the uptake of selected compounds
heat stable to [2]: approximately 130 °C
